Like-named read-outs stand apart in the source and are kept apart here.
What was measured:
[1] = test system: endotoxin (ET)-induced hypotension; assay: Reversal of endotoxin (ET)-induced hypotension in rats; format: in vivo, rat (SD); details: Rattus norvegicus, iv; given eight minutes after ET (15 mg/kg)
Procedure: Method: Male SD rats were anesthetized with sodium pentobarbital, and the right femoral artery and left femoral vein were cannulated for blood pressure measurement and for injection of the compound (6) obtained in the Production Example 1 or ET (E. Coli, 0111, B4), respectively. The compound (6) obtained in the Production Example 1 was given eight minutes after the injection of ET (15 mg/kg).

[2] = test system: endotoxin (ET)-induced death; assay: Inhibition of endotoxin (ET)-induced death in rats; format: in vivo, rat (SD)
Procedure: Method: Male SD rats were used. ET (E. Coli, 0111, B4) (15 mg/kg) was given i.v. 5 min after the injection of the compound (6) obtained in the Production Example 1.

acute renal failure = assay: Effect on acute renal failure in rats (renal artery occlusion/reperfusion); format: in vivo, rat (Sprague Dawley (Jcl)); details: 30 mg/kg oral, 1 hour prior to occlusion
Procedure: Method: Male Sprague Dawley (Jcl) rats, 5 weeks old, were anesthetized with sodium pentobarbital (50 mg/kg, i.p.) and the renal artery was occluded bilaterally for 45 minutes followed by reperfusion for 20 hours. The blood was collected from the abdominal aorta under anesthesia for measurement of blood urea nitrogen (BUN).
Results: The concentration of BUN was markedly elevated 20 hours after reperfusion.

[3] = test system: PAF-induced airway constriction; assay: Inhibition of PAF in tracheal obstruction (PAF-induced airway constriction); format: in vivo, guinea pig (Hartley); details: 0.03 mg/kg i.v., two minutes before PAF (0.3 μg/kg i.v.)
Procedure: Male and female Hartley guinea pigs weighing about 400 g each were used. The animal was fixed in the supine position under anesthesia with urethane (1.5 g/kg, i.p.), one of the 4 branches of a cannula was inserted into the trachea, and two of the other 3 branches were connected to a respirator (Harvard apparatus rodent respirator). The last branch was connected to a bronchospasm transducer 7020 (Ugobasile). Air was pumped into the lung at the rate of 5 to 7 ml at a time and 70 times per minutes at the loading pressure to the lung of 10 cm H2 O, and the volume of the overflown air was recorded via a transducer on the Rectigraph (Rectigraph-8S, San-ei Sokki). After treatment with gallamine triethodide (1 mg/kg, i.v.), histamine dihydrochloride (10 μg/kg) was intravenously injected, and the responsiveness of the animal was investigated. Thirty seconds after intravenous injection of PAF (0.3 μg/kg), a maximal airway constriction was observed. Under the conditions, the test substance [the compound (6) obtained in the Production Example 1] was examined for its inhibitory action. The test substance was dissolved in physiological saline, and given intravenously two minutes before PAF administration.

[4] = test system: death induced by anaphylactic shock; assay: Protective effect against death induced by anaphylactic shock in mice; format: in vivo; details: Mus musculus, iv, 1 h; i.v. 5 min before rechallenge with BSA (1 mg/kg, i.v.); survival at 60 min; read-out: ED50 (protection from anaphylactic shock)
Procedure: Method: Male mice were sensitized with bovine serum albumin (BSA) and killed Bordetella pertussis. Two to three weeks later, the mice were rechallenged with BSA (1 mg/kg, i.v.). Survival rate was determined 60 min after the injection of BSA. The compound (6) obtained in the Production Example 1 was given i.v. 5. min. before the rechallenge with BSA.

[5] = Stability test in the form of powders (30 days of storage, HPLC content); format: physicochemical; details: for remaining at 720 h: 30 days, powder in closed glass bottles, read-out: remaining percentage
Procedure: The compounds obtained were examined for their stability in the form of powders. […] Procedure: About 100 mg each of the test substance was placed into glass bottles, which were then closed tightly and kept at room temperature (20±2° C.) and at 40° C. (not for the control compound) for 30 days. Determination of the content: An aliquot of the test substance was dissloved in the mobile phase for high performance liquid chromatography [acetonitrile:methanol:0.1% phosphoric acid=900:240:2100] and the content was determined by HPLC.
Conditions of HPLC: column YMC ODS A302 4.6×150 mm

[6] = test system: endotoxin-induced disseminated intravascular coagulation (DIC); assay: Inhibition of experimental disseminated intravascular coagulation (DIC) in rats; format: in vivo, rat (SD)
Procedure: Method: Male SD rats were anesthetized with sodium pentobarbital. Endotoxin (E. Coli, 0111, B4) (ET) was infused into the right femoral vein at a rate of 250 μg/kg/hr for 4 hr. The compound (6) obtained in the Production Example 1 (Test compound) at a dose of 200 μg/kg was given i.v. bolus 5 min. before the infusion of ET and was then infused at a rate of 200 μg/kg/hr for 4 hr.

Acute toxicity in mice = format: in vivo, mouse (Jcl-ICR)
Description: Male J cl-ICR mice (5 animals) (aged 5 weeks) were used.

[7] = test system: PAF-induced rabbit platelet aggregation; assay: Inhibition of PAF-induced rabbit platelet aggregation (platelet rich plasma); format: cell-based; details: Oryctolagus cuniculus, read-out: rate of inhibition of PAF-induced rabbit platelet aggregation
Procedure: Blood was drawn from a male rabbit directly by cardiopuncture with a syringe containing 3.15% citric acid as an anticoagulant (one volume to 9 volumes of blood). By centrifugation at 800 rpm for 10 minutes at room temperature, platelet rich plasma (PRP) was obtained. The residual blood was centrifuged again at 3000 rpm for 10 minutes to give platelet poor plasma (PPP) as the supernatant. PRP was diluted with PPP so that the platelet count might be adjusted to about 500,000 cells/μl. 250 μl of this PRP was stirred at 37° C. for 2 minutes, and the test substance [the compound (6) obtained in Production Example 1] was added. The mixture was stirred again for 2 minutes, followed by the addition of PAF of a certain concentration. Platelet aggregation was measured with a platelet aggregometer (manufactured by Rika Denki Co. in Japan). The aggregation inhibition by the test substance was determined as the percentage of reduction from the maximal transmittance (the maximal aggregation) by PAF in the control PRP.

PAF-induced hypotension = assay: Inhibitory action on PAF-induced hypotension in rats; format: in vivo, rat (Sprague-Dawley); details: for Inhibition of hypotensive effect: PAF 1 μg/kg i.v.
Procedure: Male Sprague-Dawley rats weighing about 250 g were used. Cannulas were inserted into the unilateral femoral artery for measurement of blood pressure and into the unilateral femoral vein for administration of the drug solution. Blood pressure was measured via a pressure transducer and recorded on a polygraph. Blood pressure decrease was measured after intravenous (i.v.) injection of PAF at 1 μg/kg, and then the test substance [the compound (6) in Production Example 1] was given intravenously or orally; PAF at 1 μg/kg was given intravenously 5 minutes and 1, 2, 4, 6, and 8 hours after the intravenous injection, and 1, 2, 4, 6 and 8 hours after the oral administration, and the blood pressure decrease was measured.
The inhibitory action on PAF-induced hypotension was expressed in the ratio of decrement of blood pressure due to PAF before the treatment with the test substance (mmHg) to the decrement after the treatment with the test substance (mmHg).

[8] = test system: Reversed passive Arthus reaction; assay: Reversed passive Arthus reaction in rat; format: in vivo, rat (Sprague-Dawley); details: iv, given intravenously, read-out: ID50 (inhibition of Arthus reaction, area stained blue)
Procedure: Hair was removed at the back of a male Sprague-Dawley rat (7-week-old, weighing about 250 g) under slight anesthesia with ether and a solution of the test substance [the compound (6) obtained in the Production Example 1] in physiological saline was injected into the caudal vein at the dose of 0.2 ml per 100 g of body weight. Immediately 1 ml of 0.5% antigenic egg albumin solution in physiological saline was injected into the caudal vein. Immediately 0.1 ml of the rabbit anti-egg albumin antiserum (containing 6 mg protein antibody/ml) was given subcutaneously at a site each on the right and the left side of the back. Three hours later, 1 ml of 1% Evans Blue solution in physiological saline was injected intravenously, the skin was removed after 30 minutes, and the area stained blue was measured (in mm^2). The extent of inhibition was calculated by comparing the area with that in the group without treatment with the test substance.

CCC[n+]1cc(Br)cc(C(=O)N(CCC(=O)NCCOC(=O)N2CCc3ccccc3C2)c2ccccc2)c1.O=[N+]([O-])[O-] [Compound (6), 3-bromo-5-[N-phenyl-N-[2-[[2-(1,2,3,4-tetrahydro-2-isoquinolylcarbonyloxy)ethyl]carbamoyl]ethyl]carbamoyl]-1-propylpyridinium nitrate]
ED50 [1]: 1.2 µg/kg | Survival rate ([2]; 10 μg/kg i.v. 5 min before ET 15 mg/kg i.v., 6 day): 30% | Survival rate ([2]; 100 μg/kg i.v. 5 min before ET 15 mg/kg i.v., 22 hr, P<0.05 vs control): 60% | Survival rate ([2]; 100 μg/kg i.v. 5 min before ET 15 mg/kg i.v., 6 day, P<0.05 vs control): 40% | effect on survival rate of rats (in words) ([2]; 100 μg/kg, almost 1 week): significantly improved the survival rate | effect on elevation of BUN (in words) (acute renal failure): inhibited significantly the elevation of BUN | Blood urea nitrogen (BUN) (acute renal failure; 20 hours after reperfusion, P<0.05, control 110 ± 4): 88 ± 2 mg/dL | inhibition of PAF-induced airway constriction [3]: 91.3% | ED50 [4]: 2.6 µg/kg | stability (in words) ([5]; general statement, compared with the corresponding chloride): more stable than the corresponding chloride | remaining at 720 h ([5]; powder, closed glass bottles, at 40° C.): 99.3% | remaining at 720 h ([5]; powder, closed glass bottles, at room temperature (20±2° C.)): 100% | Fybrinogen ([6]; 200 μg/kg before ET, then 200 μg/kg/hr for 4 hr, P<0.01 vs control, control 0.3 ± 0.1, normal 2.7 ± 0.1): 1.2 ± 0.3 mg/ml plasma | FDP ([6]; 200 μg/kg before ET, then 200 μg/kg/hr for 4 hr, P<0.01 vs control, control 16.8 ± 2.3, normal 0.5 ± 0.0): 4.6 ± 0.8 μg/ml plasma | PT (prothrombin time) ([6]; 200 μg/kg before ET, then 200 μg/kg/hr for 4 hr, P<0.01 vs control, control 18.9 ± 1.3, normal 11.2 ± 0.2): 14.0 ± 0.4 s | Platelets ([6]; 200 μg/kg before ET, then 200 μg/kg/hr for 4 hr, P<0.01 vs control, control 23 ± 3, normal 71 ± 3): 40 ± 4 × 10^4 /μl | APTT (activated partial thromboplastin time) ([6]; 200 μg/kg before ET, then 200 μg/kg/hr for 4 hr, P<0.01 vs control, control 58.3 ± 3.6, normal 35.3 ± 1.3): 42.8 ± 1.5 s | effect on changes in DIC parameters (in words) ([6]; 200 μg/kg i.v. bolus + 200 μg/kg/hr for 4 hr): significantly inhibited the changes in these DIC parameters | death until one week later (acute toxicity, intravenous) (Acute toxicity in mice; 10 mg/kg intravenously, male mice, 5 animals): no death was observed | death until one week later (acute toxicity, oral) (Acute toxicity in mice; 1000 mg/kg orally, male mice, 5 animals): no death was observed | toxicity (in words) (Acute toxicity in mice; general statement): low toxicity | inhibition at 3 µM ([7]; 3 × 10^-6 M): 100% | inhibition at 0.3 µM ([7]; 3 × 10^-7 M): 100% | inhibition at 0.03 µM ([7]; 3 × 10^-8 M): 71% | Inhibition of hypotensive effect (PAF-induced hypotension; 0.01 mg/kg i.v., 5 minutes): 93% | Inhibition of hypotensive effect (PAF-induced hypotension; 0.01 mg/kg i.v., 1 hour): 84% | Inhibition of hypotensive effect (PAF-induced hypotension; 0.01 mg/kg i.v., 2 hour): 68% | Inhibition of hypotensive effect (PAF-induced hypotension; 0.01 mg/kg i.v., 4 hour): 48% | Inhibition of hypotensive effect (PAF-induced hypotension; 0.01 mg/kg i.v., 6 hour): 44% | Inhibition of hypotensive effect (PAF-induced hypotension; 0.01 mg/kg i.v., 8 hour): 24% | Inhibition of hypotensive effect (PAF-induced hypotension; 1 mg/kg p.o., 1 hour): 69% | Inhibition of hypotensive effect (PAF-induced hypotension; 1 mg/kg p.o., 2 hour): 87% | Inhibition of hypotensive effect (PAF-induced hypotension; 1 mg/kg p.o., 4 hour): 82% | Inhibition of hypotensive effect (PAF-induced hypotension; 1 mg/kg p.o., 6 hour): 76% | Inhibition of hypotensive effect (PAF-induced hypotension; 1 mg/kg p.o., 8 hour): 69% | PAF-antagonism after oral administration (in words) (PAF-induced hypotension; general statement, oral): excellent PAF-antagonism even after oral administration | ED50 [8]: 1.2 µg/kg

CCC[n+]1cc(Br)cc(C(=O)N(CCC(=O)NCCOC(=O)N2CCc3ccccc3C2)c2ccccc2)c1 [Compound (7), 3-Bromo-5-[N-phenyl-N-[2-[[2-(1,2,3,4-tetrahydro-2-isoquinolylcarbonyloxy)ethyl]carbamoyl]ethyl]carbamoyl]-1-propylpyridinium chloride, reference compound]
remaining at 720 h ([5]; at room temperature (20±2° C.)): 65%

Source: patent publication US4981860A, “Pyridinium nitrate, composition containing same and their use for inhibiting platelet activating factor” (Takeda Chemical Industries, Ltd., priority 1989, dated 1991)
